Experimental data: patent US20200093815A1, “COMBINATIONS OF EZH2 INHIBITORS WITH FURTHER AGENTS FOR USE IN THE TREATMENT OF CANCER” (Constellation Pharmaceuticals, Inc., priority 2015, published 2020)

Legend:
KARPAS-422 xenograft = details: mouse, in vivo, po, 100 mg/kg
Procedure: Tumor volume measurements were recorded at indicated days post initial dose.* CHOP: Cyclophosphamide, 40 mg/kg, i.v.; doxorubicin, 3.3 mg/kg, i.v.; vincristine, 0.5 mg/kg, i.v.; and prednisone, 0.2 mg/kg, every day for 5 days, p.o.

[1] = system: OPM-2 multiple myeloma cells; assay: Cell Titre Glo viability, EZH2 inhibitor and lenalidomide matrix, OPM-2; format: cell-based; details: Inhibitor 1 alone, FIG. 3E
Procedure: (§1) For all these experiments estimating the combinatorial response between EZH2 inhibitor and lenalidomide, cells were pre-treated with 8 different doses of EZH2 inhibitor for 8 days (Cells were split after 4 days and plated onto EZH2 inhibitor containing plates for an additional 4 days). After pre-treatment, cells were split and seeded onto EZH2 inhibitor and lenaldomide containing plates (compounds plated in a matrix format). Viability was assessed using Cell Titre Glo after 4 days of co-treatment.
(§2) Data are represented as the average percentage of cells in drug-treated wells as compared to DMSO-treated wells from independent duplicate experiments (i and ii). To assess synergy, the data was analyzed in a number of ways including calculation of combination index, bliss independence score and Loewe excess score. […] Data are represented as the mean of independent duplicate experiments ±s.d.

[2] = system: KMS-27 multiple myeloma cells; assay: Cell Titre Glo viability, EZH2 inhibitor and lenalidomide matrix, KMS-27; format: cell-based; details: Inhibitor 1 alone, FIG. 4E
Procedure: as §1, §2

[3] = system: OPM-2 subcutaneous xenograft; assay: OPM-2 subcutaneous xenograft combination experiment (lenalidomide, dexamethasone); format: in vivo, BALB/C nude mouse
Procedure: (§3) The experiment was carried out to assess the impact of Inhibitor 1 and lenalidomide in combination. Inhibitor 1 was dosed twice daily at 200 mg/kg, administered subcutaneously (200 mpk SC BID) and lenalidomide was dosed intraperitoneally once a day at 25 mg/kg (25 mpk IP QD) for the course of the entire study. Tumor volume was plotted as a function of time. Data are represented as the mean tumor volume per cohort and time point ±s.d. Bodyweight was assessed for vehicle and compound-treated animals for the experiment described in FIG. 6A. […] Data are represented as described in FIG. 6A. Vehicle and compound-treated tumors were collected at the end of the study and analyzed for global H3K27me3 and total H3 levels using an MSD ELISA assay.
Tumor volume was plotted as a function of time.

H3K27me3 [4] = assay: MSD ELISA of global H3K27me3 and total H3 in OPM-2 tumors (lenalidomide study); format: in vivo, BALB/C nude mouse; details: end of study, total H3 as normalizer; Inhibitor 1 vs vehicle control, combination vs lenalidomide alone; FIG. 6C
Procedure: as §3
Total H3 was used as a normalizer. Data are represented as the mean of data from 4 subjects±s.e.m.

H3K27me3 [5] = assay: MSD ELISA of global H3K27me3 and total H3 in OPM-2 tumors (Panobinostat study); format: in vivo, BALB/C nude mouse; details: Inhibitor 1 200 mpk SC BID vs vehicle control, end of study
Procedure: FIG. 11A is an in vivo combination experiment using an OPM-2 subcutaneous xenograft BALB/C nude mouse model (n=8 per cohort). The experiment was carried out to assess the impact of Inhibitor 1 and Panobinostat in combination. Inhibitor 1 was dosed twice daily at 200 mg/kg administered subcutaneously (200 mpk SC BID) and Panobinostat was dosed intraperitoneally once a day. Panobinostat was dosed at 5 mg/kg QD (DO-D4); 2.5 mg/kg QD (D7-D9, D13, D17 and D19), the dose and frequency of dosing was reduced to manage the toxicity effects. Tumor volume was plotted as a function of time. Data are represented as the mean tumor volume per cohort and time point±s.d. Bodyweight was assessed for vehicle and compound-treated animals for the experiment described in FIG. 11B. Data are represented as described in FIG. 11C. Vehicle and Inhibitor 1-treated tumors were collected at the end of the study and analyzed for global H3K27me3 and total H3 levels using an MSD ELISA assay. […] Data are represented as the mean of data from 4 subjects±s.e.m.

[6] = system: 19 multiple myeloma cell lines; assay: Combination with standard of care agents in multiple myeloma cell lines; format: cell-based; details: FIG. 16
Excerpt: FIG. 16 summarizes the synergies observed between various standard of care agents as described above in 19 multiple myeloma cell lines.

Structure (SMILES) | adverse effects / toxicity (KARPAS-422 xenograft) | effect of single agent on cell viability [1] | effect of single agent on cell viability [2] | single agent activity in xenograft model ([3]; Inhibitor 1 200 mpk SC BID alone) | effect on in vivo anti-tumor activity of dexamethasone ([3]; OPM-2 xenograft, FIG. 13) | levels of H3K27me3 in tumors (H3K27me3 [4]) | levels of H3K27me3 in tumors (H3K27me3 [5]) | combinatorial activity with standard of care agents [6]
COc1cc(C)[nH]c(=O)c1CNC(=O)c1c(C)n(C(C)C2CCN(CC(F)(F)F)CC2)c2ccccc12 (stereo not drawn) [Inhibitor 3] | did not show any adverse effects and did not add to CHOP toxicity |  |  |  |  |  |  | 
CCS(=O)(=O)N1CCC([C@@H](C)n2c(C)c(C(=O)NCc3c(OC)cc(C)[nH]c3=O)c3ccccc32)CC1 [Inhibitor 1] |  | dose-dependent effect | dose-dependent effect | little single agent activity | increases | marked reduction | marked reduction | broadly combines with various different standard of care agents
Nc1cccc2c1CN(C1CCC(=O)NC1=O)C2=O (stereo not drawn) [Lenalidomide, lenalidomide, reference compound] |  |  |  |  |  | did not affect |  | 
